According to patent US11590117B2, “Treatment of a hematologic malignancy with 2-(4-chlorophenyl)-n-((2-(2,6-dioxopiperidin-3-yl)-1-oxoisoindolin-5-yl)methyl)-2,2-difluoroacetamide” (priority 2016, dated 2023):
Like-named read-outs stand apart in the source and are kept apart here.

Experiments:
[1] = tested on: Red-labeled AML cell lines; experiment: IncuCyte live cell imaging of cell viability, sub-panel of twelve Red-labeled AML cell lines; assay type: cell-based; conditions: Homo sapiens, 96 h
Experimental: Derivation of Red-labeled Acute Myeloid Leukemia Cell Lines: Twelve cell lines, including AML-193, HL-60, KG-1, ML-2, MOLM-13, MV-4-11, NOMO-1, OCI-AML2, OCI-AML3, SIG-M5, TF-1, and THP-1, were stably transduced with Red lentivirus. Cells were plated in 6-well plates in growth media, incubated with 8 µg/mL polybrene (EMD Millipore Cat no. TR-1003-G) followed by infection with CellPlayer™ NucLight™ Red-lentiviral particles (Essen Biosciences Cat no. 4478) at a multiplicity of infectivity (MOI) of 0.5 to 2.5 for 24 hours. MOI refers to the ratio of virus particles to cells. Virus-containing media was replaced with fresh growth media and incubated for an additional 24 to 48 hours, followed by selection with Zeocin (500 to 2000 μg/mL), a derivative of bleomycin (Life Technologies-Invitrogen Cat no. R250-01). Cells were selected with fresh Zeocin every 3 to 4 days for 3 to 8 weeks. Cells were periodically viewed using fluorescent microscopy for nuclear-restricted red fluorescence. Zeocin selection was terminated once the population was confirmed to stably fluoresce red. All Red-labeled cell lines were acclimated to EMEM containing 20% FBS, with or without GM-CSF supplementation, allowing for optimal live cell imaging.
Incubation of Cell Cultures with Compound 1: Compound 1 was provided for studies by Celgene chemistry group at a stock concentration of 30 mM in 20 μL dimethyl sulfoxide (DMSO) frozen. Costar 96-well cell culture plates (Corning Cat no. 3595) were coated with 100 μL of 10 µg/mL fibronectin (Sigma-Aldrich Cat no. F1141) for 4 hours at 37° C. and immediately used or refrigerated overnight for later use. Cells (3000 to 6000 cells) were plated in growth medi in fibronectin-coated 96-well plates and incubated for a minimum of a few hours to overnight. Cells were incubated with a 12-point concentration response in triplicate with Compound 1 ([…]) including DMSO and Media controls. A 3-fold serial dilution of Compound 1 starting from a concentration of 200 μM in 0.6% DMSO (diluted in Media) was performed. For most sensitive cell lines, a 3-fold serial dilution of Compound 1 starting from a concentration of 20 μM in 0.6% DMSO (diluted in media) was performed. A volume of 5 μL or 10 μL for each dilution was added to 100 μL or 200 μL cells, respectively (0.3% DMSO final) and incubated for live cell imaging.
Live Cell Imaging on IncuCyte Zoom: Following incubation of cells with Compound 1, diluted Caspase 3/7 reagent (Essen Biosciences Cat no. 4440) is added to each well. […] Caspase-3/7 activation was quantified using the IncuCyte™ ZOOM basic analyzer. […]
Twelve Red-labeled human AML cell lines, established as described above, were incubated with Compound 1 dose range (0 to 10 μM) and Red fluorescence or Object count was imaged over time, as described above. […]

AML cell lines = experiment: CellTiter-Glo (CTG) cell proliferation assay, 72 hours, panel of 11 AML cell lines; assay type: cell-based; conditions: Homo sapiens, 10 out of the 11 AML cell lines tested (sensitive lines), read-out: antiproliferative IC50 values (range)
Experimental: Preparation of Solutions of Test Article: Compounds were plated into black 384-well plates (Corning Inc.) to a final DMSO volume of 0.1% assuming a maximal volume of 50 μL. A 10-point dose response starting at 10 μM with a 1:3 dilution was printed in duplicate by acoustic dispense using the EDC ATS-100 platform.
Cell Proliferation Assays: The effect of Compound 1 on the proliferation/viability of the hematological cell lines (Table 1 Table, Table 2 and Table 3), THLE-2, or PBMCs was assessed after 72 hours incubation using CTG (Promega), according to manufacturer's instructions. Hematological cell lines were dispensed into compound plates by a Multidrop™ Combi Reagent Dispenser (Thermo Scientific, Waltham, Mass.) at a concentration of 0.1 to 0.3×10^6 cells per mL in a 50 μL total volume. […] At 72 hours, 25 μL per well of CTG was dispensed by a Multidrop™ Combi Reagent Dispenser and adenosine triphosphate (ATP) release by viable cells was measured as relative luminescence units after 30 minutes using the Envision platform.
Results. […] Compound 1 inhibited cell proliferation in 10 out of 11 AML cell lines assessed, as determined by the quantitative assessment of ATP levels present in the media after 72 hours. […]
Proliferation was assessed using the CellTitre-Glo® assay. […] The IC50 for inhibition of cell growth by Compound 1 was determined for each cell line using ActivityBase software.

`O=C1CCC(N2Cc3cc(CNC(=O)C(F)(F)c4ccc(Cl)cc4)ccc3C2=O)C(=O)N1` (centres unmarked) [Compound 1, 2-(4-chlorophenyl)-N-((2-(2,6-dioxopiperidin-3-yl)-1-oxoisoindolin-5-yl)methyl)-2,2-difluoroacetamide] gave an EC50 ([1]; four moderately sensitive cell lines (TF-1, THP-1, SIG-M5, OCI-AML3), read-out: cell viability EC50 96hr (range)) of 58 to 186 nM, an EC50 ([1]; four moderately sensitive cell lines, read-out: cell viability average EC50 96hr) of 121 nM and an EC50 ([1]; seven highly sensitive cell lines (AML-193, ML-2, HL-60, KG-1, NOMO-1, MV-4-11, OCI-AML2), read-out: cell viability EC50 96hr (range)) of 2 to 40 nM. For the same compound, the EC50 ([1]; seven highly sensitive cell lines, read-out: cell viability average EC50 96hr) was 15 nM and the IC50 (AML cell lines) was 3 to 75 nM.
